We go through 30 compounds from PMC8286840, “Identifying SARS-CoV-2 antiviral compounds by screening for small molecule inhibitors of Nsp3 papain-like protease” (Biochemical Journal, 2021).

Structures can show the parent of a compound that is named as a salt. Where two headings read alike, the source gives them in different places.

In experiment [1] the target is T1, SARS-CoV-2 PLpro (nsp3 1564–1878) (Severe acute respiratory syndrome coronavirus 2, UniProt P0DTD1). The experiment in a line: biochemical. The settings on record: high concentration screen, read-out: % of control remaining. The arrangement: FRET-quenched peptide (Pro3) cleavage by PLpro, 10 min pre-incubation, slope over 20 min, normalised to no-compound control.

For experiment [2], the target named is T1, SARS-CoV-2 PLpro (nsp3 1564–1878). Description: biochemical. Set-up: FRET-quenched peptide (Pro3) cleavage by PLpro, 10 min pre-incubation, slope over 20 min, normalised to no-compound control. The note with it: low concentration screen, read-out: % of control remaining.

For `OC[C@H]1O[C@@H](n2cnc3c(N[C@@H]4C[C@H]5CC[C@H]4C5)ncnc32)[C@H](O)[C@@H]1O` [(S)-ENBA], in experiment [1] (Well no.=465), the remaining activity at 3.75 µM stood at 105%. Besides, the remaining activity at 1.25 µM in experiment [2] (Well no.=465) was determined as 102%.
With `O=C(O)c1ccc(C(=O)O)o1` [2,5-Furandicarboxylic acid], the remaining activity at 3.75 µM in experiment [1] (Well no.=7461) came to 91.7%. In addition, the remaining activity at 1.25 µM in experiment [2] (Well no.=7461) turned out to be 98%.
In the case of `CC(C)(CO)c1cc2cc(NC(=O)C3(c4ccc5c(c4)OC(F)(F)O5)CC3)c(F)cc2n1C[C@@H](O)CO` [VX-661], the remaining activity at 3.75 µM in experiment [1] (Well no.=4780) was 94.1%. Further, the remaining activity at 1.25 µM in experiment [2] (Well no.=4780) came out at 97%.
Regarding `Nc1ccn([C@H]2C[C@H](O)[C@@H](CO)O2)c(=O)n1` [2'-Deoxycytidine], the remaining activity at 3.75 µM stood at 93.7% in experiment [1] (Well no.=7451) and 98.4% in experiment [1] (Well no.=7760). The remaining activity at 1.25 µM in experiment [2] (Well no.=7451) turned out to be 93.9%; in experiment [2] (Well no.=7760) it was 96.4%.
With `Nc1nc2c(ncn2[C@@H]2O[C@H](COP(=O)(O)OP(=O)(O)O)[C@@H](O)[C@H]2O)c(=O)[nH]1` [Guanosine 5'-diphosphate disodium salt], the remaining activity at 3.75 µM in experiment [1] (Well no.=8939) was 96.6%. In addition, the remaining activity at 1.25 µM in experiment [2] (Well no.=8939) came to 98.9%.
In the case of `COc1ccc(CC(=O)NC(N=C(NC#N)Nc2cccc3ncccc23)C(C)(C)C)cc1OC` (centres unmarked) [A-740003], the remaining activity at 3.75 µM in experiment [1] (Well no.=5421) was determined as 96.3%. Moreover, the remaining activity at 1.25 µM in experiment [2] (Well no.=5421) was determined as 92%.
`CC1=CC(=O)c2ccccc2C1=O` [Menadione]: the values for the remaining activity at 3.75 µM in experiment [1] (Well no.=3372) and in experiment [1] (Well no.=6251) were 96.5% and 101%, respectively. Besides, the remaining activity at 1.25 µM in experiment [2] (Well no.=3372) came out at 98.5%; in experiment [2] (Well no.=6251), 99.2%.
Consider `CS(=O)(=O)Nc1ccc([N+](=O)[O-])cc1Oc1ccccc1` [Nimesulide], for which the remaining activity at 3.75 µM in experiment [1] (Well no.=1043) turned out to be 96.1%; in experiment [1] (Well no.=1574), 94.3%. Moreover, the values for the remaining activity at 1.25 µM in experiment [2] (Well no.=1043) and in experiment [2] (Well no.=1574) were 93.4% and 95.5%, respectively.
On to `CC(C)[C@H]1[C@@H]2CC[C@@H](C2)[C@@H]1N` [AGN 192403 hydrochloride], for which the remaining activity at 3.75 µM in experiment [1] (Well no.=116) came to 104%. In addition, the remaining activity at 1.25 µM in experiment [2] (Well no.=116) turned out to be 101%.
Consider `C[N+](C)(C)[C@@H](Cc1c[nH]c(=S)[nH]1)C(=O)[O-]` [Ergothioneine], for which the remaining activity at 3.75 µM in experiment [1] (Well no.=1612) turned out to be 98.8%. The remaining activity at 1.25 µM in experiment [2] (Well no.=1612) was 100%.
As for `CN(C)c1ccc(-c2nc3ncc(Cl)c(N4CCN(CC(=O)Nc5nccs5)CC4)c3[nH]2)cc1` [CCT129202], the remaining activity at 3.75 µM in experiment [1] (Well no.=5253) is 93.9%. Moreover, the remaining activity at 1.25 µM in experiment [2] (Well no.=5253) amounted to 88.1%.
Turning to `O=C(O)c1cccnc1` [Nicotinic Acid], the remaining activity at 3.75 µM in experiment [1] (Well no.=8286) amounted to 96.4%. The remaining activity at 1.25 µM in experiment [2] (Well no.=8286) is 95.6%.
For `CCCCC[C@H](O)/C=C/[C@@H]1[C@H]2C/C(=C/CCCC(=O)O)C[C@H]2C[C@H]1O` [Carbacyclin], the remaining activity at 3.75 µM in experiment [1] (Well no.=4529) was determined as 95.8%. For the same compound, in experiment [2] (Well no.=4529), the remaining activity at 1.25 µM was 91.4%.
Consider `CCCOC(=O)c1c(-c2ccccc2)nc(CC)c(C(=O)SCC)c1CCC` [MRS 1523], for which the remaining activity at 3.75 µM in experiment [1] (Well no.=1064) came to 94.2%. Moreover, in experiment [2] (Well no.=1064), the remaining activity at 1.25 µM worked out at 95.3%.
Turning to `C[C@H]1[C@H]2CC[C@H]3[C@@H]4CC=C5C[C@@H](N(C)C)CC[C@]5(C)[C@H]4CC[C@]23CN1C` [Conessine], the remaining activity at 3.75 µM in experiment [1] (Well no.=3100) is 93.7%. Besides, the remaining activity at 1.25 µM in experiment [2] (Well no.=3100) is 94%.
For `O=c1cc(-c2ccc(O)cc2)oc2cc(O)c([C@@H]3O[C@H](CO)[C@@H](O)[C@H](O)[C@H]3O)c(O)c12` [Isovitexin], the remaining activity at 3.75 µM in experiment [1] (Well no.=3301) came to 98.6%. In experiment [2] (Well no.=3301), the remaining activity at 1.25 µM came out at 99.2%.
`CCC(CC)CC1(C(=O)Nc2ccccc2SC(=O)C(C)C)CCCCC1` [Dalcetrapib (JTT-705, RO4607381)]: the remaining activity at 3.75 µM in experiment [1] (Well no.=8198) was 102%. The remaining activity at 1.25 µM in experiment [2] (Well no.=8198) came to 102%.
Take `CCc1cccc2c3c([nH]c12)C(CC)(CC(=O)O)OCC3` (centres unmarked) [Etodolac]: the remaining activity at 3.75 µM in experiment [1] (Well no.=740) came out at 97.9%. Also, the remaining activity at 1.25 µM in experiment [2] (Well no.=740) was 95.3%.
Consider `O=C(O)CCCC[C@@H]1SC[C@@H]2NC(=O)N[C@@H]21` [Biotin (Vitamin B7)], for which the remaining activity at 3.75 µM in experiment [1] (Well no.=5359) stood at 95.3%. Besides, the remaining activity at 1.25 µM in experiment [2] (Well no.=5359) amounted to 98.1%.
As to `Nc1nc(N)c2nc(-c3ccccc3)c(N)nc2n1` [Triamterene], the remaining activity at 3.75 µM in experiment [1] (Well no.=1525) was 91.1%. The remaining activity at 1.25 µM in experiment [2] (Well no.=1525) is 94%.
Regarding `CCCCCC/C=C/C=C\CCCCCCCC(=O)O` [(9Z,11E)-Octadecadienoic acid], in experiment [1] (Well no.=4354), the remaining activity at 3.75 µM came to 106%. Further, the remaining activity at 1.25 µM in experiment [2] (Well no.=4354) came out at 106%.
Turning to `CCN(CC)Cc1ccc(C(=O)N(CCc2ccccc2OC)[C@@H]2CCNC2)cc1` [PF429242 (dihydrochloride)], in experiment [1] (Well no.=6996), the remaining activity at 3.75 µM was found to be 97.5%. In addition, the remaining activity at 1.25 µM in experiment [2] (Well no.=6996) was found to be 102%.
Take `N[C@@H](Cc1c[nH]c2ccccc12)C(=O)O` [L-Tryptophan]: the values for the remaining activity at 3.75 µM in experiment [1] (Well no.=1471) and in experiment [1] (Well no.=7361) were 98.2% and 100%, respectively. Besides, the remaining activity at 1.25 µM in experiment [2] (Well no.=1471) worked out at 96.7%; in experiment [2] (Well no.=7361), 100%.
As for `O=S(=O)(O)c1cc(O)ccc1O` [Ethamsylate], in experiment [1] (Well no.=6763), the remaining activity at 3.75 µM came to 89.6%. Also, the remaining activity at 1.25 µM in experiment [2] (Well no.=6763) turned out to be 103%.
In the case of `O=[N+]([O-])c1cc(S(=O)(=O)Nc2ccc(O)c3ccccc23)ccc1Cl` [4-chloro-N-(4-hydroxy-1-naphthyl)-3-nitrobenzenesulfonamide], the remaining activity at 3.75 µM in experiment [1] (Well no.=5816) was found to be 97.4%. Also, in experiment [2] (Well no.=5816), the remaining activity at 1.25 µM is 96.1%.
`CN1Cc2c(N)cccc2C(c2ccccc2)C1` (centres unmarked) [Nomifensine maleate]: the remaining activity at 3.75 µM in experiment [1] (Well no.=1139) was determined as 96.7%. In addition, in experiment [2] (Well no.=1139), the remaining activity at 1.25 µM was found to be 94.1%.
Take `O=c1ccn([C@@H]2O[C@@]3(CO)CO[C@@H]2[C@@H]3O)c(=O)[nH]1`: the remaining activity at 3.75 µM in experiment [1] (Well no.=7864) stood at 92.8%. In addition, in experiment [2] (Well no.=7864), the remaining activity at 1.25 µM was found to be 98.5%.
Consider `COc1c(O)cc(O)c2c(=O)cc(-c3ccccc3)oc12` [Wogonin], for which the remaining activity at 3.75 µM in experiment [1] (Well no.=3735) is 98.6%. Further, the remaining activity at 1.25 µM in experiment [2] (Well no.=3735) was 96.1%.
For the compound `CN1C(=O)[C@@H](NC(=O)c2cc(Cc3ccccc3)on2)COc2ccccc21` [GSK'481], in experiment [1] (Well no.=6534), the remaining activity at 3.75 µM turned out to be 98.7%. Further, in experiment [2] (Well no.=6534), the remaining activity at 1.25 µM came out at 104%.
Regarding `CN1C[C@H](C(=O)N[C@]2(C)O[C@@]3(O)[C@@H]4CCCN4C(=O)[C@H](Cc4ccccc4)N3C2=O)C=C2c3cccc4[nH]cc(c34)C[C@H]21` [Ergotamine], the remaining activity at 3.75 µM in experiment [1] (Well no.=1726) was 98.3%. Moreover, the remaining activity at 1.25 µM in experiment [2] (Well no.=1726) worked out at 99.5%.
